For the test, the target named is T1, F508del (Homo sapiens, UniProt P13569, DEL508-508).
T1 construct: expressed in transfected cells
Nature of the test: Protocol 1: membrane potential optical assay (FLIPR III, voltage sensing dye), identification of potentiator compounds. In kind it is cell-based. The following applies: Table 3, compounds of Table 1. In a few lines:
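NIH3T3 F508del cells, 27° C × 24 hrs; compound/DMSO pretreat → redistribution dye load → single forskolin addition with Cl⁻ gradient (gluconate-substituted bath, HEPES pH 7.4). FLIPR III membrane-potential fluorescence read.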

Molecules are shown by their SMILES.

T1 sequence (P13569 with tags, fused parts or gaps DEL508-508): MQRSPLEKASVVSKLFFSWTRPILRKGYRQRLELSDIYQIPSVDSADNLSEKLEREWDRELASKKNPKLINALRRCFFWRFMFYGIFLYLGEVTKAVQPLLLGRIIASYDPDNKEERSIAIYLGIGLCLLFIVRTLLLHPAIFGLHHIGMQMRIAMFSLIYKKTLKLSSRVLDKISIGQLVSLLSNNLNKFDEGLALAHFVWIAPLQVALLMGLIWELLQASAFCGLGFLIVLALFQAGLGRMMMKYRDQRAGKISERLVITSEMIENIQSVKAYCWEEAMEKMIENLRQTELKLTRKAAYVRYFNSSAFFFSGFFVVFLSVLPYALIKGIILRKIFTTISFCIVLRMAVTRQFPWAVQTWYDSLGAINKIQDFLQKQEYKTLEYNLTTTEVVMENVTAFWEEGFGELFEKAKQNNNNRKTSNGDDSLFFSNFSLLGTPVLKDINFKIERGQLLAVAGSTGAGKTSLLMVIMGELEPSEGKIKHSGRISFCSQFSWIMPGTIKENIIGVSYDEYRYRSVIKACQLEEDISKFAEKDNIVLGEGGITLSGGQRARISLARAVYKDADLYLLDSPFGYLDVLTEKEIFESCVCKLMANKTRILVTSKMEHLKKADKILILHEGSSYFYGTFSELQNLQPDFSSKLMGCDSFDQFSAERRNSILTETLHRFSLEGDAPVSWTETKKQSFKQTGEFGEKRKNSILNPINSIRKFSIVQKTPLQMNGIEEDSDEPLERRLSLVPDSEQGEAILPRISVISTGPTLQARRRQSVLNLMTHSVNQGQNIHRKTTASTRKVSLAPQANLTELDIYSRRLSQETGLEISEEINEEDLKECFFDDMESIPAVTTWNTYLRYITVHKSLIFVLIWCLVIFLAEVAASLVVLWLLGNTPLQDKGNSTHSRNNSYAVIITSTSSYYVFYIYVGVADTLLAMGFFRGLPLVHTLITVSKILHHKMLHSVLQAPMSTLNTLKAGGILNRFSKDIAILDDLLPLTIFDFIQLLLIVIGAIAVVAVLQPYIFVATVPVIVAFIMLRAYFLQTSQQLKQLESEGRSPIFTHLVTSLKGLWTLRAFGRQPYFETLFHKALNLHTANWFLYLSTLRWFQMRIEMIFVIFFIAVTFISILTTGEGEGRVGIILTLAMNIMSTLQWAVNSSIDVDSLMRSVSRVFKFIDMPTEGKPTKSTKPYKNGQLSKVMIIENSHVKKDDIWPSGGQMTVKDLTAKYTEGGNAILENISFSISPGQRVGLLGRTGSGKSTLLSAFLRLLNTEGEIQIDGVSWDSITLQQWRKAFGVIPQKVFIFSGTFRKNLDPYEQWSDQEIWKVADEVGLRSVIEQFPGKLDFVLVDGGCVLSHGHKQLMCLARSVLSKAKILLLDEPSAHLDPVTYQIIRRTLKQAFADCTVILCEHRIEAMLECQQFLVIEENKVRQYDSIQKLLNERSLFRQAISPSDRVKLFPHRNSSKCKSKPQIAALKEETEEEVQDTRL

On to `C[C@@H]1CN(c2nc(-n3ccc(OCC(C)(C)C)n3)ccc2C(=O)NS(=O)(=O)c2cccnc2N)C(C)(C)C1` [Compound 1975, N-[(2-amino-3-pyridyl)sulfonyl]-6-[3-(2,2-dimethylpropoxy)pyrazol-1-yl]-2-[(4S)-2,2,4-trimethylpyrrolidin-1-yl]pyridine-3-carboxamide], for which the EC30 result is listed as “+++ (“+++” means <3 uM)”.
The result for `CC1CN(c2ncc(-c3cccc(C#N)c3)cc2C(=O)NS(=O)(=O)c2cccc(N)n2)C(C)(C)C1` (stereo not drawn) [Compound 1849, N-[(6-amino-2-pyridyl)sulfonyl]-5-(3-cyanophenyl)-2-(2,2,4-trimethylpyrrolidin-1-yl)pyridine-3-carboxamide] reads “++ (“++” means between 3 uM and 10 uM)”.
The result for `Cc1cc(C)c(Oc2nc(C3CC(C)(C)CCC3=O)ccc2C(=O)NS(=O)(=O)c2cccc(N)n2)c(C)c1` (stereo not drawn) [Compound 1427, N-[(6-amino-2-pyridyl)sulfonyl]-6-(5,5-dimethyl-2-oxo-cyclohexyl)-2-(2,4,6-trimethylphenoxy)pyridine-3-carboxamide] reads “+++ (“+++” means <3 uM)”.
Then `COc1cc(OC)cc(-c2ccc(C(=O)NS(=O)(=O)c3ccc[nH]c3=O)c(N3C[C@@H](C)CC3(C)C)n2)c1` [Compound 1878, 6-(3,5-dimethoxyphenyl)-N-[(2-oxo-1H-pyridin-3-yl)sulfonyl]-2-[(4S)-2,2,4-trimethylpyrrolidin-1-yl]pyridine-3-carboxamide], with “++ (“++” means between 3 uM and 10 uM)”; and `CC(=O)N1CCc2cc(Nc3cccc(S(=O)(=O)NC(=O)c4cccnc4N4CC(C)CC4(C)C)n3)ccc21` (stereo not drawn) [Compound 1877, N—[[6-[(1-acetylindolin-5-yl)amino]-2-pyridyl]sulfonyl]-2-(2,2,4-trimethylpyrrolidin-1-yl)pyridine-3-carboxamide], with “++ (“++” means between 3 uM and 10 uM)”.
As for `CC(C)COc1cc(F)cc(-c2ccc(C(=O)NS(=O)(=O)c3cccc(N)n3)c(N3CCC[C@@H]3C(C)(C)C)n2)c1` [Compound 1170, N-[(6-amino-2-pyridyl)sulfonyl]-2-[(2R)-2-tert-butylpyrrolidin-1-yl]-6-(3-fluoro-5-isobutoxy-phenyl)pyridine-3-carboxamide], the EC30 result was “+++ (“+++” means <3 uM)”.
Regarding `CC(C)Oc1ccc(-c2ccc(C(=O)NS(=O)(=O)c3cccc(N)n3)c(N3CCC[C@H](C)C3)n2)cn1` [Compound 836, N-[(6-amino-2-pyridyl)sulfonyl]-6-(6-isopropoxy-3-pyridyl)-2-[(3S)-3-methyl-1-piperidyl]pyridine-3-carboxamide], the EC30 result was “++ (“++” means between 3 uM and 10 uM)”.
The result for `CC(C)COc1cc(F)cc(-c2ccc(C(=O)NS(=O)(=O)N3CCCC(NS(C)(=O)=O)C3)c(N3CC(C)CC3(C)C)n2)c1` (stereo not drawn) [Compound 1600, 6-(3-fluoro-5-isobutoxy-phenyl)-N—[[3-(methanesulfonamido)-1-piperidyl]sulfonyl]-2-(2,2,4-trimethylpyrrolidin-1-yl)pyridine-3-carboxamide] reads “+++ (“+++” means <3 uM)”; that for `CCN(CC)c1cccc(-c2ccc(C(=O)NS(=O)(=O)c3cccc(N)n3)c(N3CC(C)CC3(C)C)n2)n1` (stereo not drawn) [Compound 1345, N-[(6-amino-2-pyridyl)sulfonyl]-6-[6-(diethylamino)-2-pyridyl]-2-(2,2,4-trimethylpyrrolidin-1-yl)pyridine-3-carboxamide], “+++ (“+++” means <3 uM)”; that for `CC(C)COc1cc(F)cc(-c2ccc(C(=O)NS(=O)(=O)N[C@H]3CCNC3)c(N3C[C@@H](C)CC3(C)C)n2)c1` [Compound 1935, 6-(3-fluoro-5-isobutoxy-phenyl)-N—[[(3S)-pyrrolidin-3-yl]sulfamoyl]-2-[(4S)-2,2,4-trimethylpyrrolidin-1-yl]pyridine-3-carboxamide], “+++ (“+++” means <3 uM)”.
Then `CC(C)COc1cc(-c2ccc(C(=O)NS(=O)(=O)c3cccc(N)n3)c(N3CC(C)CC3(C)C)n2)ccc1Cl` (stereo not drawn) [Compound 1021, N-[(6-amino-2-pyridyl)sulfonyl]-6-(4-chloro-3-isobutoxy-phenyl)-2-(2,2,4-trimethylpyrrolidin-1-yl)pyridine-3-carboxamide], with “+++ (“+++” means <3 uM)”; and `CC(C)COc1cc(F)cc(-c2ccc(C(=O)NS(=O)(=O)c3ccccn3)c(N3CC(C)CC3(C)C)n2)c1` (stereo not drawn) [Compound 1063, 6-(3-fluoro-5-isobutoxy-phenyl)-N-(2-pyridylsulfonyl)-2-(2,2,4-trimethylpyrrolidin-1-yl)pyridine-3-carboxamide], with “+++ (“+++” means <3 uM)”; and `Cc1cc(F)ccc1Oc1nc(C(C)(C)C)ccc1C(=O)NS(=O)(=O)c1cccc(N)n1` [Compound 1104, N-[(6-amino-2-pyridyl)sulfonyl]-6-tert-butyl-2-(4-fluoro-2-methyl-phenoxy)pyridine-3-carboxamide], with “+++ (“+++” means <3 uM)”.
The result for `C[C@@H]1CN(c2nc(-c3ccc4ccccc4c3)ccc2C(=O)NS(=O)(=O)c2ccc[nH]c2=O)C(C)(C)C1` [Compound 1803, 6-(2-naphthyl)-N-[(2-oxo-1H-pyridin-3-yl)sulfonyl]-2-[(4S)-2,2,4-trimethylpyrrolidin-1-yl]pyridine-3-carboxamide] reads “+++ (“+++” means <3 uM)”; that for `CC1CN(c2nc(-c3cnn(C(C)C)c3)ccc2C(=O)NS(=O)(=O)c2cccc(N)n2)C(C)(C)C1` (stereo not drawn) [Compound 1067, N-[(6-amino-2-pyridyl)sulfonyl]-6-(1-isopropylpyrazol-4-yl)-2-(2,2,4-trimethylpyrrolidin-1-yl)pyridine-3-carboxamide], “+++ (“+++” means <3 uM)”; that for `Cc1cc(C)c(Oc2nc(-c3ccnn3C)ccc2C(=O)NS(=O)(=O)c2cccc(N)n2)c(C)c1` [Compound 1057, N-[(6-amino-2-pyridyl)sulfonyl]-6-(2-methylpyrazol-3-yl)-2-(2,4,6-trimethylphenoxy)pyridine-3-carboxamide], “+ (“+” means greater than 10 uM)”.
Consider `CCC1CCN(c2nc(-c3cc(F)cc(OCC(C)C)c3)ccc2C(=O)NS(=O)(=O)c2cccc(N)n2)C1` (stereo not drawn) [Compound 931, N-[(6-amino-2-pyridyl)sulfonyl]-2-(3-ethylpyrrolidin-1-yl)-6-(3-fluoro-5-isobutoxy-phenyl)pyridine-3-carboxamide], for which the EC30 result is reported as “+++ (“+++” means <3 uM)”.
Then `C[C@@H]1CC[C@H](C)N1c1nc(-c2ccccc2)ccc1C(=O)NS(=O)(=O)c1cccc(N)n1` [Compound 805, N-[(6-amino-2-pyridyl)sulfonyl]-2-[(2S,5R)-2,5-dimethylpyrrolidin-1-yl]-6-phenyl-pyridine-3-carboxamide], with “+++ (“+++” means <3 uM)”.
Then `CC(C)COc1cc(F)cc(-c2ccc(C(=O)NS(=O)(=O)c3ccn[nH]3)c(NC3CCCC(C(F)(F)F)C3)n2)c1` (stereo not drawn) [Compound 1281, 6-(3-fluoro-5-isobutoxy-phenyl)-N-(1H-pyrazol-5-ylsulfonyl)-2-[[3-(trifluoromethyl)cyclohexyl]amino]pyridine-3-carboxamide], with “++ (“++” means between 3 uM and 10 uM)”.
The result for `Cc1ccc(C)c(-c2ccc(C(=O)NS(=O)(=O)N3CC[C@H](N)C3)c(N3C[C@@H](C)CC3(C)C)n2)c1` [Compound 1736, N-[(3S)-3-aminopyrrolidin-1-yl]sulfonyl-6-(2,5-dimethylphenyl)-2-[(4S)-2,2,4-trimethylpyrrolidin-1-yl]pyridine-3-carboxamide] reads “++ (“++” means between 3 uM and 10 uM)”; that for `CC1CN(c2nc(C(C)(C)C)c(C3=CCOCC3)cc2C(=O)NS(=O)(=O)c2cccc(N)n2)C(C)(C)C1` (stereo not drawn) [Compound 1495, N-[(6-amino-2-pyridyl)sulfonyl]-6-tert-butyl-5-(3,6-dihydro-2H-pyran-4-yl)-2-(2,2,4-trimethylpyrrolidin-1-yl)pyridine-3-carboxamide], “+++ (“+++” means <3 uM)”; that for `CCOc1cc(-c2ccc(C(=O)NS(=O)(=O)c3cccc(N)n3)c(Oc3c(C)cc(C)cc3C)n2)ccc1OC` [Compound 860, N-[(6-amino-2-pyridyl)sulfonyl]-6-(3-ethoxy-4-methoxy-phenyl)-2-(2,4,6-trimethylphenoxy)pyridine-3-carboxamide], “++ (“++” means between 3 uM and 10 uM)”.
In the case of `C[C@@H]1CN(c2nc(-n3ccc(OCC(C)(C)C)n3)ccc2C(=O)NS(=O)(=O)c2cccc(N)n2)C(C)(C)C1` [Compound 1952, N-[(6-amino-2-pyridyl)sulfonyl]-6-[3-(2,2-dimethylpropoxy)pyrazol-1-yl]-2-[(4S)-2,2,4-trimethylpyrrolidin-1-yl]pyridine-3-carboxamide], the EC30 result is “+++ (“+++” means <3 uM)”.
Then `CCc1ccnc(Nc2cccc(S(=O)(=O)NC(=O)c3cccnc3N3CC(C)CC3(C)C)n2)c1` (stereo not drawn) [Compound 1862, N—[[6-[(4-ethyl-2-pyridyl)amino]-2-pyridyl]sulfonyl]-2-(2,2,4-trimethylpyrrolidin-1-yl)pyridine-3-carboxamide], with “+++ (“+++” means <3 uM)”; and `CC(C)COc1cc(F)cc(-c2ccc(C(=O)NS(=O)(=O)c3cccc(N)n3)c(OCCC3CCCCC3)n2)c1` [Compound 1465, N-[(6-amino-2-pyridyl)sulfonyl]-2-(2-cyclohexylethoxy)-6-(3-fluoro-5-isobutoxy-phenyl)pyridine-3-carboxamide], with “+++ (“+++” means <3 uM)”.
Take `CCOc1cccc2c1CN(Cc1c(C)cc(C)cc1C)C2(C)C(=O)NS(=O)(=O)c1cccc(NC(C)=O)n1` (stereo not drawn) [Compound 1415, N-[(6-acetamido-2-pyridyl)sulfonyl]-4-ethoxy-1-methyl-2-[(2,4,6-trimethylphenyl)methyl]isoindoline-1-carboxamide]: the EC30 entry is reported as “+++ (“+++” means <3 uM)”.
Then `CC1CN(c2ncccc2C(=O)NS(=O)(=O)c2cccc(Nc3cc4ccccc4cn3)n2)C(C)(C)C1` (stereo not drawn) [Compound 1933, N—[[6-(3-isoquinolylamino)-2-pyridyl]sulfonyl]-2-(2,2,4-trimethylpyrrolidin-1-yl)pyridine-3-carboxamide], with “+++ (“+++” means <3 uM)”.
